From PubChem BioAssay AID1845199 (Molecular Pharmacology Branch, DTP, NCI, 2023)
“And” between values parts separate entries of the source, which are not always exact repeats. Equal values may be shown once.

System: 556581-035-R-J1 tumor spheroid viability, % test/control
Assay: Anticancer human tumor 556581-035-R-J1 patient-derived ovarian carcinoma cell line growth inhibition
Settings: spheroids with HUVEC and MSC; for viability, T/C: stronger effect = lower value
In short: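 Complex tumor spheroids combined malignant cells with endothelial cells and mesenchymal stem cells. DNA-damaging drugs and DNA repair inhibitors were tested alone and in combination, at half-log dilutions down from clinical Cmax (top 10 microM if Cmax unknown), 0.25% DMSO final.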

[1] = curve of first compound, second compound 0.003 µM
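Further: spheroids exposed to compounds for 7 days before viability read.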

COc1cc(C)[nH]c(=O)c1CN1CCc2c(Cl)cc(C(OC)C3COC3)c(Cl)c2C1=O (configuration not stated) + COc1cc2c(cc1O)CCNC21CSC2c3c(OC(C)=O)c(C)c4c(c3C(COC1=O)N1C(O)C3Cc5cc(C)c(OC)c(O)c5C(C21)N3C)OCO4
IC50 (curve of first compound, second compound 30 pM): > 10000 nM
IC50 (curve of first compound, second compound 94.9 pM): > 10000 nM
IC50 (curve of first compound, second compound 0.0003 µM): > 10000 nM
IC50 (curve of first compound, second compound 0.000949 µM): < 31.6 nM
IC50 [1]: < 31.6 nM
viability, T/C (second compound 30 pM, first compound 0.0316 µM): 106%
viability, T/C (second compound 30 pM, first compound 0.1 µM): 108%
viability, T/C (second compound 30 pM, first compound 0.316 µM): 105%
viability, T/C (second compound 30 pM, first compound 1 µM): 115%
viability, T/C (second compound 30 pM, first compound 3.16 µM): 116%
viability, T/C (second compound 30 pM, first compound 10 µM): 113%
viability, T/C (second compound 94.9 pM, first compound 0.0316 µM): 103%
viability, T/C (second compound 94.9 pM, first compound 0.1 µM): 101%
viability, T/C (second compound 94.9 pM, first compound 0.316 µM): 108%
viability, T/C (second compound 94.9 pM, first compound 1 µM): 111%
viability, T/C (second compound 94.9 pM, first compound 3.16 µM): 108%
viability, T/C (second compound 94.9 pM, first compound 10 µM): 110%
viability, T/C (second compound 0.0003 µM, first compound 0.0316 µM): 92.4%
viability, T/C (second compound 0.0003 µM, first compound 0.1 µM): 95%
viability, T/C (second compound 0.0003 µM, first compound 0.316 µM): 100%
viability, T/C (second compound 0.0003 µM, first compound 1 µM): 101%
viability, T/C (second compound 0.0003 µM, first compound 3.16 µM): 98.2%
viability, T/C (second compound 0.0003 µM, first compound 10 µM): 93.7%
viability, T/C (second compound 0.000949 µM, first compound 0.0316 µM): 44.6%
viability, T/C (second compound 0.000949 µM, first compound 0.1 µM): 46.5%
viability, T/C (second compound 0.000949 µM, first compound 0.316 µM): 41.4%
viability, T/C (second compound 0.000949 µM, first compound 1 µM): 36.7%
viability, T/C (second compound 0.000949 µM, first compound 3.16 µM): 32.1%
viability, T/C (second compound 0.000949 µM, first compound 10 µM): 17.6%
viability, T/C (second compound 0.003 µM, first compound 0.0316 µM): 0.61%
viability, T/C (second compound 0.003 µM, first compound 0.1 µM): 0.67%
viability, T/C (second compound 0.003 µM, first compound 0.316 µM): 2.15%
viability, T/C (second compound 0.003 µM, first compound 1 µM): 0.7%
viability, T/C (second compound 0.003 µM, first compound 3.16 µM): 0.66%
viability, T/C (second compound 0.003 µM, first compound 10 µM): 1.02%

Cc1sc2c(c1C)C(c1ccc(Cl)cc1)=NC(CC(=O)Nc1ccc(O)cc1)c1nnc(C)n1-2 (configuration not stated)
viability, T/C (compound 0.00949 µM): 102% and 101% and 103%
viability, T/C (compound 0.03 µM): 98.1% and 83.8% and 103%
viability, T/C (compound 0.0949 µM): 82.5% and 90.3% and 88.8%
viability, T/C (compound 0.3 µM): 74.5% and 89.5% and 82.5%
viability, T/C (compound 0.949 µM): 71.8% and 76.6% and 76%
viability, T/C (compound 3 µM): 66.2% and 70.1% and 71.4%
IC50 (curve of compound): > 3000 nM

Cn1ncnc1[C@H]1c2n[nH]c(=O)c3cc(F)cc(c23)N[C@@H]1c1ccc(F)cc1 + CC[C@@]1(O)C(=O)OCc2c1cc1n(c2=O)Cc2cc3c(CN(C)C)c(O)ccc3nc2-1
IC50 [1]: > 3000 nM
IC50 (curve of first compound, second compound 0.00949 µM): > 3000 nM
IC50 (curve of first compound, second compound 0.03 µM): 1300 nM
IC50 (curve of first compound, second compound 0.0949 µM): 67.5 nM
IC50 (curve of first compound, second compound 0.3 µM): < 9.49 nM
viability, T/C (second compound 0.003 µM, first compound 0.00949 µM): 105%
viability, T/C (second compound 0.003 µM, first compound 0.03 µM): 97.7%
viability, T/C (second compound 0.003 µM, first compound 0.0949 µM): 93.2%
viability, T/C (second compound 0.003 µM, first compound 0.3 µM): 94.3%
viability, T/C (second compound 0.003 µM, first compound 0.949 µM): 71.1%
viability, T/C (second compound 0.003 µM, first compound 3 µM): 57.1%
viability, T/C (second compound 0.00949 µM, first compound 0.00949 µM): 88.2%
viability, T/C (second compound 0.00949 µM, first compound 0.03 µM): 81.7%
viability, T/C (second compound 0.00949 µM, first compound 0.0949 µM): 82.2%
viability, T/C (second compound 0.00949 µM, first compound 0.3 µM): 71.4%
viability, T/C (second compound 0.00949 µM, first compound 0.949 µM): 68.5%
viability, T/C (second compound 0.00949 µM, first compound 3 µM): 49.4%
viability, T/C (second compound 0.03 µM, first compound 0.00949 µM): 70%
viability, T/C (second compound 0.03 µM, first compound 0.03 µM): 67.2%
viability, T/C (second compound 0.03 µM, first compound 0.0949 µM): 63.2%
viability, T/C (second compound 0.03 µM, first compound 0.3 µM): 64.9%
viability, T/C (second compound 0.03 µM, first compound 0.949 µM): 52.9%
viability, T/C (second compound 0.03 µM, first compound 3 µM): 39.8%
viability, T/C (second compound 0.0949 µM, first compound 0.00949 µM): 57.9%
viability, T/C (second compound 0.0949 µM, first compound 0.03 µM): 51.3%
viability, T/C (second compound 0.0949 µM, first compound 0.0949 µM): 45%
viability, T/C (second compound 0.0949 µM, first compound 0.3 µM): 44.2%
viability, T/C (second compound 0.0949 µM, first compound 0.949 µM): 36.2%
viability, T/C (second compound 0.0949 µM, first compound 3 µM): 19.2%
viability, T/C (second compound 0.3 µM, first compound 0.00949 µM): 13.2%
viability, T/C (second compound 0.3 µM, first compound 0.03 µM): 13.1%
viability, T/C (second compound 0.3 µM, first compound 0.0949 µM): 12.7%
viability, T/C (second compound 0.3 µM, first compound 0.3 µM): 11%
viability, T/C (second compound 0.3 µM, first compound 0.949 µM): 9.44%
viability, T/C (second compound 0.3 µM, first compound 3 µM): 6.18%
